Legend:
[1] = tested on: urinary bladder over the effect on the salivation; conditions: preclinical, Nilvebrant et al. 1997; cited from earlier work
[2] = target: T1, human muscarinic M3 receptor (Homo sapiens, UniProt P20309); assay: [3H]-methylscopolamine binding to recombinant human M3 receptors; conditions: BSR-M3H cell membranes, 60 minutes at 25° C.
T1 construct: expressed in transfected cells; host or cells: BSR-M3H cells (membrane preparation)
Experimental: WO 94/11337 discloses that the active metabolite has high affinity to muscarinic receptors in the guinea-pig bladder. Different compounds of the present invention were tested in a well established standardized assay, measuring the binding of [^3H]-methylscopolamine to recombinant human M3 receptors. BSR-M3H cells transfected with a plasmid encoding the human muscarinic M3 receptor were used to prepare membranes in modified Tris-HCl pH 7.4 buffer using standard techniques. An aliquot of the membrane preparation was incubated with [^3H]-methylscopolamine in the presence or absence of different concentrations of several compounds of the invention for 60 minutes at 25° C. Nonspecific binding was estimated in the presence of 1 μM atropine. Membranes were filtered and washed three times and the filters were counted to determine the amount of [^3H]-methylscopolamine specifically bound.

guinea-pig ileum = assay: Anticholinergic activity in guinea-pig ileum (methacholine-induced contractile response); assay type: cell-based; conditions: Cavia porcellus; methacholine 0.6 μM, Krebs solution pH 7.4, 32° C.
Experimental: The compounds were tested for their anticholinergic activity in a standard tissue assay, the guinea-pig ileum. A segment of ileum was obtained from Duncan Hartley guinea-pigs which were scarified by cervical dislocation. The tissue was placed under 1 g tension in a 10 ml bath containing Krebs, solution (pH 7.4, 32° C.) and the concentration-dependent ability of different compounds to reduce the methacholine-induced (0.6 μM) contractile response was recorded.

[3] = Penetration through human skin, flow through cell; assay type: in vitro ADME; conditions: human skin 200 μm thick, 32° C., acceptor phosphate buffer pH 6.2
Experimental: Different compounds of the invention were tested for their ability to penetrate the human skin (200 μm thick) in the “Flow through cell” at 32° C. according to Tiemessen et al. (Acta Pharm. Technol. 1998; 34:99-101). Phosphate buffer (pH 6.2) was used as the acceptor medium. Samples were drawn at different time points and analysed by RP-HPLC with UV detection (220 nm). Permeation profiles were plotted and mean flux rates of different substances were calculated by linear regression analysis.

[4] = Incubation of labelled substrates: metabolic degradation to the carboxylic acid; assay type: in vitro ADME, human; conditions: 3 hrs at 37.0° C., 40 μM; compared with unlabelled hydroxy metabolite
Experimental: The metabolic degradation of the unlabelled hydroxy metabolite (i.e. Intermediate D) and the deuteriated hydroxy-metabolite (Intermediate d2B) were compared in vitro. Used were the respective enantiomers and the racemates.
The hydroxy metabolite and the deuteriated hydroxy-metabolite expressed significant differences in the rate to produce the corresponding carboxylic acid.
The measurement was performed with an incubation time of 3 hrs at 37.0° C. in a concentration of 40 μM.

T1 sequence (P20309 whole entry): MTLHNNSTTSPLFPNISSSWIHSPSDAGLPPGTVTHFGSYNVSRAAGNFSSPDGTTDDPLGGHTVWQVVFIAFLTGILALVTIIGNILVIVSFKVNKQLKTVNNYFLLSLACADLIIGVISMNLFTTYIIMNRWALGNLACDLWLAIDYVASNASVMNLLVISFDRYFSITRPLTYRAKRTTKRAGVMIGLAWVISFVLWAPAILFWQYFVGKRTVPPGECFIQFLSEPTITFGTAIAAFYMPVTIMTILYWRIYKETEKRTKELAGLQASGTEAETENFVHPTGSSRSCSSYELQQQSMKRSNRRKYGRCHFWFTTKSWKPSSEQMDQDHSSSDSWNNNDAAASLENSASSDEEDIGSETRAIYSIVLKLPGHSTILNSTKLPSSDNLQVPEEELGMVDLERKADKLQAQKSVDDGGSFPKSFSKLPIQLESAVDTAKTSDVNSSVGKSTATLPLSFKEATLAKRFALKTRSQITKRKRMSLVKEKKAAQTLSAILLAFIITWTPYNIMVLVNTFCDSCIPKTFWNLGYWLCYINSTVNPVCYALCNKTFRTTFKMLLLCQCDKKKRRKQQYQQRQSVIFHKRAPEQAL

| SMILES | IC50 [2] [nM] | IC50 (guinea-pig ileum) [nM] | other results |
| --- | --- | --- | --- |
| CCN(CC)CC#CCOC(=O)C(O)(c1ccccc1)C1CCCCC1 (centres unmarked) [oxybutynin] | – | – | tissue selectivity in vivo for the urinary bladder over the effect on the salivation [1]: reversed selectivity |
| CC(=O)OCc1ccc(OC(=O)c2ccccc2)c(C(CCN(C(C)C)C(C)C)c2ccccc2)c1 (racemic) [AcO-/-OBz, (±)-Benzoic acid 2-(3-diisopropylamino-1-phenylpropyl)-4-acetoxymethylphenyl ester] | 5400 | – | – |
| CC(C)N(CC[C@H](c1ccccc1)c1cc(COC(=O)c2ccccc2)ccc1OC(=O)c1ccccc1)C(C)C [(+)BzO-/-OBz, R-(+)-benzoic acid 4-benzoyloxymethyl-2-(3-diisopropylamino-1-phenylpropyl)-phenyl ester] | – | 220 | – |
| Cc1ccc(O)c([C@H](CCN(C(C)C)C(C)C)c2ccccc2)c1 [tolterodine, Tolterodine] | – | – | tissue selectivity in vivo for the urinary bladder over the effect on the salivation [1]: favourable tissue selectivity |
| CC(=O)OCc1ccc(OC(=O)C(C)C)c(C(CCN(C(C)C)C(C)C)c2ccccc2)c1 (racemic) [AcO-/-OiBut, (±)-Isobutyric acid 4-acetoxymethyl-2-(3-diisopropylamino-1-phenylpropyl)-phenyl ester] | 3600 | – | – |
| CCC(=O)OCc1ccc(OC(=O)CC)c(C(CCN(C(C)C)C(C)C)c2ccccc2)c1 (racemic) [PropO-/-OProp, (±)-Propionic acid 2-(3-diisopropylamino-1-phenylpropyl)-4-propionyloxymethylphenyl ester] | – | – | Flux rate [3]: 70 μg/cm^2/24 hrs |
| CC(C)C(=O)Oc1ccc(CO)cc1C(CCN(C(C)C)C(C)C)c1ccccc1 (racemic) [HO-/-OiBut, (±)-Isobutyric acid 2-(3-diisopropylamino-1-phenylpropyl)-4-hydroxymethylphenyl ester] | – | – | Flux rate [3]: 150 μg/cm^2/24 hrs |
| CC(=O)OCc1ccc(OC(=O)C(C)C)c([C@H](CCN(C(C)C)C(C)C)c2ccccc2)c1 [(+)AcO-/-OiBut, R-(+)-isobutyric acid 4-acetoxymethyl-2-(3-diisopropylamino-1-phenylpropyl)-phenyl ester] | – | 240 | – |
| CC(C)N(CCC(c1ccccc1)c1cc(COC(=O)c2ccccc2)ccc1OC(=O)c1ccccc1)C(C)C (racemic) [BzO-/-OBz, (±)-Benzoic acid 4-benzoyloxymethyl-2-(3-diisopropylamino-1-phenylpropyl)-phenyl ester] | 2400 | – | – |
| CC(C)C(=O)OCc1ccc(OC(=O)C(C)C)c(C(CCN(C(C)C)C(C)C)c2ccccc2)c1 (racemic) [iButO-/-OiBut, (±)-Isobutyric acid 2-(3-diisopropylamino-1-phenylpropyl)-4-isobutyryloxymethylphenyl ester] | – | – | Flux rate [3]: 60 μg/cm^2/24 hrs |
| CC(C)N(CCC(c1ccccc1)c1cc(CO)ccc1O)C(C)C (racemic) [HO-/-OH, (±)-2-(3-Diisopropylamino-1-phenylpropyl)-4-hydroxymethylphenol, reference compound] | – | – | Flux rate [3]: 3 μg/cm^2/24 hrs |
| [2H]C([2H])(O)c1ccc(O)c(C(CCN(C(C)C)C(C)C)c2ccccc2)c1 (racemic) [deuteriated hydroxy-metabolite, (±)-2-(3-Diisopropylamino-1-phenylpropyl)-4-hydroxy-[^2H2]methyl-phenol] | – | – | decreased velocity of formation of the carboxylic acid [4]: 10% |

Further lines, with some results ahead:

| IC50 [2] [nM] | IC50 (guinea-pig ileum) [nM] | SMILES | other results |
| --- | --- | --- | --- |
| 1300 | 680 | CC(C)N(CC[C@@H](c1ccccc1)c1cc(CO)ccc1O)C(C)C [(−)HO-/-OH, S-(−)-2-(3-Diisopropylamino-1-phenylpropyl)-4-hydroxymethyl-phenol, reference compound] | – |
| 172 | 180 | CC(C)N(CC[C@H](c1ccccc1)c1cc(CO)ccc1OC(=O)c1ccccc1)C(C)C [(+)HO-/-OBz, R-(+)-Benzoic acid 2-(3-diisopropylamino-1-phenylpropyl)-4-hydroxymethylphenyl ester] | – |
| 8.7 | 20 | CC(C)N(CC[C@H](c1ccccc1)c1cc(CO)ccc1O)C(C)C [(+)HO-/-OH, R-(+)-2-(3-Diisopropylamino-1-phenylpropyl)-4-hydroxymethyl-phenol, reference compound] | – |
| 159 | 57 | CC(C)C(=O)Oc1ccc(CO)cc1[C@H](CCN(C(C)C)C(C)C)c1ccccc1 [(+)HO-/-OiBut, R-(+)-Isobutyric acid 2-(3-diisopropylamino-1-phenylpropyl)-4-hydroxymethylphenyl ester] | – |
